Results: paper PMC12455397 (Angewandte Chemie (International Ed. in English), 2025)
Structures can show the parent of a compound that is named as a salt. Where two headings read alike, the source gives them in different places.

Legend:
[1] = test system: Nrf2 KO THP1 cells differentiated into macrophages; experiment: RNA sequencing transcriptome analysis, Nrf2 KO THP-1 macrophages; assay type: cell-based; details: 12 h, CDDO-Me 0.1 µM, DMF, 24, 28 10 µM, KI-696 1 µM
[2] = test system: differentiated THP1 macrophages (WT); details: for number of upregulated genes not shared by the other groups: DMF 10 µM
THP1 cells = assay type: cell-based; details: THP-1 WT, 100 µM, 48 h; stated as contrast to 24/28, which did not reduce viability
Protocol: THP1 cells were exposed to the compounds for 48 hours at 10 and 100 μM. Viability was quantified using
propidium iodide exclusion through flow cytometry. PI-positive cells (dead or necrotic cells) were quantified
through red fluorescence on a BD C6 Accuri flow cytometer using a 488 nm excitation wavelength and an
emission filter of 585 nm ± 40 nm (BD Biosciences). 50,000 events were collected (n = 3 technical replicates
per condition). The experiment was repeated twice. Data are presented as mean ± SEM (n = 4‒10).

human Keap1 Kelch = human Keap1 Kelch (Homo sapiens, UniProt Q14145); experiment: Fluorescence polarization (FP) competition assay with Cy5-Nrf2 peptide probe
Chain of human Keap1 Kelch (Q14145 321-609): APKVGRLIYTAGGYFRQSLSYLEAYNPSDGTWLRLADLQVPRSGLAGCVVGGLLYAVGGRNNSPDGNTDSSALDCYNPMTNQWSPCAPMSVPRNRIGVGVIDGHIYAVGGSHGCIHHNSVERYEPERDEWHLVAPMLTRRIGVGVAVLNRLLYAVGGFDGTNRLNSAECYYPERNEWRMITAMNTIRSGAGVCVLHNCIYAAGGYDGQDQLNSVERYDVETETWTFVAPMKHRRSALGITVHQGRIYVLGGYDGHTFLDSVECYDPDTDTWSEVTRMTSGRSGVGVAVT
Protocol: Fluorescence Polarization Assay
(3 nM) and human Keap1 Kelch at 14 nM in the 1×HBSTET assay buffer, as previously.[1, 3-5] In short, the assay was performed in black flat-bottom 384-well plates (Corning Life Sciences, NY) allowing an assay volume of 30 μL/well. Proper mixing and elimination of air bubbles was ascertained by spinning down the plates and incubation for 10–15 minutes at RT before measuring FP levels on a Safire2 plate-reader (Tecan, Männedorf, Switzerland). The Ki values of the compounds were determined by dose-response experiments (12-points, 4% DMSO in all wells), where FP values were fitted to the equation Y = Bottom + (Top - Bottom)/[1 + (10HillSlope*(LogIC50-X))]; X representing the logarithmic value of compound concentration. The resulting IC50 value, together with the Kd value (the dissociation constant between probe and Keap1 Kelch, determined in a prior experiment) and Keap1 Kelch concentrations, was used to calculate the theoretical competitive inhibition constant, the Ki value.[18]

Keap1 Kelch domain = Keap1 Kelch domain (Homo sapiens, UniProt Q14145); experiment: Surface plasmon resonance (SPR), immobilized Keap1 Kelch
Chain of Keap1 Kelch domain (Q14145 321-609 limits assumed): as the sequence (Q14145 321-609) above
Protocol: Surface Plasmon Resonance
SPR measurements were performed at 25 °C using a Pioneer FE FE instrument (Sartorius), as described
previosuly.[1, 3-4] The Keap1 Kelch domain was covalently immobilized on the biosensor chip surface by
amine coupling to a level of 2150 RU, using a 10 mM NaOAc pH 5 immobilization buffer. The 1×HBSTET
buffer (10 mM Hepes, 150 mM NaCl, 0.005% Tween20, 3 mM EDTA, 1 mM TCEP, pH = 7.4)
supplemented with 4% DMSO was used as running buffer for the experiments. Microcalibration was
performed for all SPR experiments to adjust for DMSO bulk effects (low limit of 3% and a high limit of
5%). The compound was injected in a concentration series of twofold serial dilutions (67.5–1000 µM)
using standard injections at a 30 μL/min flow rate. The data were analyzed using Qdat Data Analysis
Tool version 2.6.3.0 (Sartorius). The sensorgrams were corrected for buffer effects and unspecific
binding to the chip matrix by subtraction of blank and reference surfaces (a blank flow cell channel
activated by the injection of EDC/NHS and inactivated by the injection of ethanolamine). The
dissociation constant (Kd) was estimated by plotting MW normalized response levels (RUnorm) at equilibrium (Req) against the injected concentration and curve-fitted to a Langmuir (1:1) binding

[3] = WT, 12 h, CDDO-Me 0.1 µM, SFN, DMF, 24, 28 10 µM, KI-696 1 µM
[4] = WT, 12 h, CDDO-Me 0.1 µM, SFN, DMF, 24, 28 10 µM, KI-696 1 µM, NS = not significant

| Structure (SMILES) | AKR1B10 FC ([2]; Table S3, THP-1, 12 h) | CASP1 FC ([2]; Table S3, THP-1, 12 h) | COL1A1 FC ([2]; Table S3, THP-1, 12 h) | COL4A1 FC ([2]; Table S3, THP-1, 12 h) | COL4A2 FC ([2]; Table S3, THP-1, 12 h) | GPX1 FC ([2]; Table S3, THP-1, 12 h) | GPX4 FC ([2]; Table S3, THP-1, 12 h) | IFNAR1 FC ([2]; Table S3, THP-1, 12 h) | IFNAR2 FC ([2]; Table S3, THP-1, 12 h) | IFNGR1 FC ([2]; Table S3, THP-1, 12 h) | IFNGR2 FC ([2]; Table S3, THP-1, 12 h) | IL1B FC ([2]; Table S3, THP-1, 12 h) | IRF3 FC ([2]; Table S3, THP-1, 12 h) | LAMB1 FC ([2]; Table S3, THP-1, 12 h) | LAMB4 FC ([2]; Table S3, THP-1, 12 h) | MMP8 FC ([2]; Table S3, THP-1, 12 h) | MMP9 FC ([2]; Table S3, THP-1, 12 h) | MMP12 FC ([2]; Table S3, THP-1, 12 h) | NLRP3 FC ([2]; Table S3, THP-1, 12 h) | NOD2 FC ([2]; Table S3, THP-1, 12 h) | also measured |
| --- | --- | --- | --- | --- | --- | --- | --- | --- | --- | --- | --- | --- | --- | --- | --- | --- | --- | --- | --- | --- | --- |
| COC(=O)[C@]12CCC(C)(C)C[C@H]1[C@H]1C(=O)C=C3[C@@]4(C)C=C(C#N)C(=O)C(C)(C)[C@@H]4CC[C@@]3(C)[C@]1(C)CC2 [CDDO-Me, bardoxolone methyl] | 61,69 fold | 1,31 fold | 3,46 fold | 0,30 fold | 0,49 fold | 0,44 fold | 0,91 fold | 0,82 fold | 0,52 fold | 0,81 fold | 0,41 fold | 0,13 fold | 0,95 fold | 3,83 fold | 5,61 fold | 0,21 fold | 0,51 fold | 0,25 fold | 0,43 fold | 0,78 fold | number of up- or downregulated genes in Nrf2 KO cells [1]: 2149 genes; NOXA1 FC ([2]; Table S3, THP-1, 12 h): 0,67 fold; SOCS1 FC ([2]; Table S3, THP-1, 12 h): 0,37 fold; SOCS3 FC ([2]; Table S3, THP-1, 12 h): 1,14 fold; SOD1 FC ([2]; Table S3, THP-1, 12 h): 2,71 fold; SOD2 FC ([2]; Table S3, THP-1, 12 h): 0,36 fold; STAT1 FC ([2]; Table S3, THP-1, 12 h): 1,02 fold; TBK1 FC ([2]; Table S3, THP-1, 12 h): 1,06 fold; TLR4 FC ([2]; Table S3, THP-1, 12 h): 0,26 fold; TNFRSF1B FC ([2]; Table S3, THP-1, 12 h): 0,27 fold; TRAP1 FC ([2]; Table S3, THP-1, 12 h): 0,64 fold; cGAS FC ([2]; Table S3, THP-1, 12 h): 1,19 fold; number of upregulated genes not shared by the other groups ([2]; WT, 12 h, CDDO-Me 0.1 µM): > 500 genes; Average FC of upregulated Nrf2-dependent genes [2, 3]: 5.0 fold; number of upregulated genes (FC >2.0, p-adj <0.05) [2, 3]: 1091 genes |
| C[S+]([O-])CCCCN=C=S (stereo not shown) [SFN, sulforaphane] | 34,78 fold | 0,45 fold | 0,98 fold | 0,55 fold | 1,38 fold | 0,53 fold | 0,94 fold | 0,88 fold | 0,85 fold | 0,63 fold | 0,58 fold | 0,36 fold | 1,48 fold | 7,81 fold | 17,37 fold | 0,32 fold | 0,70 fold | 0,29 fold | 0,44 fold | 0,16 fold | CYP1B1 FC [2]: 1,15 fold; NOXA1 FC ([2]; Table S3, THP-1, 12 h): 0,45 fold; SOCS1 FC ([2]; Table S3, THP-1, 12 h): 2,19 fold; SOCS3 FC ([2]; Table S3, THP-1, 12 h): 0,99 fold; SOD1 FC ([2]; Table S3, THP-1, 12 h): 2,16 fold; SOD2 FC ([2]; Table S3, THP-1, 12 h): 0,40 fold; STAT1 FC ([2]; Table S3, THP-1, 12 h): 0,66 fold; TBK1 FC ([2]; Table S3, THP-1, 12 h): 0,95 fold; TLR4 FC ([2]; Table S3, THP-1, 12 h): 0,43 fold; TNFRSF1B FC ([2]; Table S3, THP-1, 12 h): 1,19 fold; TRAP1 FC ([2]; Table S3, THP-1, 12 h): 0,74 fold; cGAS FC ([2]; Table S3, THP-1, 12 h): 1,42 fold; Average FC of upregulated Nrf2-dependent genes [2, 3]: 4.1 fold; number of upregulated genes (FC >2.0, p-adj <0.05) [2, 3]: 676 genes; GCLM fold change vs vehicle [2, 4]: 4.7 fold; GSR fold change vs vehicle [2, 4]: 3.4 fold; SRXN1 fold change vs vehicle [2, 4]: 4.5 fold; TXNRD1 fold change vs vehicle [2, 4]: 3.9 fold; cell viability (THP1 cells): contrasted |
| COC(=O)/C=C/C(=O)OC [DMF, dimethyl fumarate] | 1,00 fold | 0,18 fold | 0,44 fold | 1,46 fold | 1,16 fold | 0,59 fold | 1,09 fold | 0,95 fold | 0,80 fold | 0,93 fold | 0,78 fold | 2,70 fold | 1,15 fold | 4,44 fold | 7,56 fold | 1,70 fold | 0,85 fold | 1,88 fold | 1,19 fold | 0,31 fold | number of up- or downregulated genes in Nrf2 KO cells [1]: 3709 genes; NOXA1 FC ([2]; Table S3, THP-1, 12 h): 0,30 fold; SOCS1 FC ([2]; Table S3, THP-1, 12 h): 5,21 fold; SOCS3 FC ([2]; Table S3, THP-1, 12 h): 18,01 fold; SOD1 FC ([2]; Table S3, THP-1, 12 h): 1,73 fold; SOD2 FC ([2]; Table S3, THP-1, 12 h): 0,19 fold; STAT1 FC ([2]; Table S3, THP-1, 12 h): 0,62 fold; TBK1 FC ([2]; Table S3, THP-1, 12 h): 1,19 fold; TLR4 FC ([2]; Table S3, THP-1, 12 h): 0,84 fold; TNFRSF1B FC ([2]; Table S3, THP-1, 12 h): 1,26 fold; TRAP1 FC ([2]; Table S3, THP-1, 12 h): 0,85 fold; cGAS FC ([2]; Table S3, THP-1, 12 h): 1,04 fold; number of upregulated genes not shared by the other groups ([2]; WT, 12 h, CDDO-Me 0.1 µM): > 500 genes; Average FC of upregulated Nrf2-dependent genes [2, 3]: 4.2 fold; number of upregulated genes (FC >2.0, p-adj <0.05) [2, 3]: 845 genes; cell viability (THP1 cells): contrasted |
| O=C(COc1ccccc1)NC1CCCCC1 [Compound 1] | – | – | – | – | – | – | – | – | – | – | – | – | – | – | – | – | – | – | – | – | activity in FP competition assay (human Keap1 Kelch): inactive; Kd (Keap1 Kelch domain; KD (SPR, printed in Figure 1b), Rmax fixed to theoretical maximum (15 RU)): 686 ± 7 µM; Kd (Keap1 Kelch domain; Kd (SPR), estimated with Rmax fixed to theoretical maximum): ~700 µM; ligand efficiency (LE) (Keap1 Kelch domain; from SPR Kd): 0.25 |
| COc1cc([C@@H](CC(=O)O)c2ccc(C)c(CN3C[C@@H](C)Oc4ccccc4S3(=O)=O)c2)cc2nnn(C)c12 [KI-696] | 26,39 fold | 0,94 fold | 1,59 fold | 0,61 fold | 0,77 fold | 1,38 fold | 1,74 fold | 0,90 fold | 1,02 fold | 0,70 fold | 0,91 fold | 0,85 fold | 1,43 fold | 2,64 fold | 3,38 fold | 0,82 fold | 1,21 fold | 0,60 fold | 0,78 fold | 0,57 fold | number of up- or downregulated genes in Nrf2 KO cells [1]: none; CYP1B1 FC ([2]; Table S3, THP-1, 12 h): 0,76 fold; NOXA1 FC ([2]; Table S3, THP-1, 12 h): 0,92 fold; SOCS1 FC ([2]; Table S3, THP-1, 12 h): 2,43 fold; SOCS3 FC ([2]; Table S3, THP-1, 12 h): 1,66 fold; SOD1 FC ([2]; Table S3, THP-1, 12 h): 1,75 fold; SOD2 FC ([2]; Table S3, THP-1, 12 h): 0,87 fold; STAT1 FC ([2]; Table S3, THP-1, 12 h): 0,69 fold; TBK1 FC ([2]; Table S3, THP-1, 12 h): 1,56 fold; TLR4 FC ([2]; Table S3, THP-1, 12 h): 0,32 fold; TNFRSF1B FC ([2]; Table S3, THP-1, 12 h): 1,13 fold; TRAP1 FC ([2]; Table S3, THP-1, 12 h): 1,02 fold; cGAS FC ([2]; Table S3, THP-1, 12 h): 1,08 fold; Average FC of upregulated Nrf2-dependent genes [2, 3]: 2.4 fold; number of upregulated genes (FC >2.0, p-adj <0.05) [2, 3]: 88 genes; GCLM fold change vs vehicle [2, 4]: 2.5 fold; GSR fold change vs vehicle [2, 4]: 2.4 fold; HMOX1 fold change vs vehicle [2, 4]: 2.6 fold; NQO1 fold change vs vehicle [2, 4]: 2.3 fold; TXNRD1 fold change vs vehicle [2, 4]: 2.3 fold |
